# Test results published in patent US20220056075A1, “METHOD FOR TREATING OPIOID USE DISORDER” (THE ADMINISTRATORS OF THE TULANE EDUCATIONAL FUND, priority 2019, published 2022).
# “And” between values parts separate entries of the source, which are not always exact repeats. Equal entries are not always repeated. “Also recorded” adds a separate entry of the source.
# Experiments:
# [1] = tested on: dopamine (DA) neurons in the posterior VTA; test: VTA dopamine cell soma morphology (TH staining, STEREO INVESTIGATOR); type: in vivo, rat; details: 5 consecutive daily i.v. injections; morphine effect at 5.6 mg/Kg
# Procedure: DA morphology analysis: Fifteen min following the final CPP test session, rats were anesthetized with a mixture of ketamine/xylazine (85/10 mg/Kg, i.p., respectively) and perfused intracardially with 200 mL of 0.1 mol/L phosphate buffered saline (PBS) immediately followed by 300 mL of 4% paraformaldehyde in 0.1 mol/L PBS (pH=7.4). Brains were removed and post-fixed at 4° C. in the same fixative for 18 h. After post-fixation, brains were incubated in 30% sucrose at 4° C. for 2 days and sectioned coronally on a cryostat at 40 μm at the level of the posterior VTA (Spiga et al., 2003; Chu et al., 2008). After 2 consecutive washes in PBS, sections were blocked with 5% normal donkey serum (NDS) for 1 h, and incubated with the primary antibody anti-tyrosine-hydroxylase (anti-TH, 1: 3000 Cell Signaling Technology, Danvers, Mass.) overnight at 4° C. Slices were washed twice in PBS, re-blocked for 1 h, and incubated with the secondary antibody ALEXA594 (Life Technologies, Carlsbad, Calif.), for 2 h. Sections were washed, mounted on slides with PROLONG GOLD (Life Technologies), and stored at 4° C. Posterior VTA sections were verified according to the atlas of Paxinos and Watson (2007). Images of the parabrachial pigmented area (PBP) and the paranigral area (PN) subregions of the posterior VTA were captured in z-stacks (1 μm) with at least 5 tissue slices per rat and 5-6 rats per drug group. STEREO INVESTIGATOR software (MBF Bioscience; Williston, Va.) was used to quantify soma size using the optical fractionator probe to survey a sample of neurons in each z-stack while the nucleator probe was used to measure the cross-sectional area and volume of each cell soma. The optical fractionator probe was used to quantify the number of cells in a particular section of tissue through systematic random sampling. Between 12 and 16 regions were surveyed per z-stack. While the optical fractionator probe utilized stereological techniques to select a random sample to be analyzed, the nucleator probe measured the cross-sectional area of each neuron. Therefore, the simultaneous use of these probes systematically assessed neurons in the PBP and PN regions of the VTA in each subject, and provided morphological data for these cells including surface area (μm^2) and volume (μm^3). Cell somas were eligible to be quantified if they were located within the counting frame and/or if the soma touched either of the nucleator frame's green borders. Neurons were ineligible if located outside the counting frame and/or if their soma touched the frame's red borders. After determining this optimum depth, the center of the soma was located and analyzed by the nucleator probe. To eliminate bias associated with tissue orientation, nucleator rays were randomly arranged between quantifications. […]
# Male Sprague-Dawley rats = test: Reinstatement of morphine-induced conditioned place preference; details: priming dose 1.8 mg/Kg, 20 min, vs baseline
# Procedure: Male Sprague-Dawley rats were exposed to a conditioned place preference (CPP) apparatus for two sessions to determine baseline (BL) preference for 2 distinct, unbiased chambers. […] The animals then underwent extinction procedures consisting of confinement for 45 min in the previously drug- and vehicle-paired chambers for 7 days.
# male and female mice = type: in vivo, mouse; details: s.c., compared to vehicle
# Male Sprague Dawley rats [2] = test: Locomotor sensitization during CPP conditioning sessions; type: in vivo, rat; details: 1.8, 3.2, 5.6 mg/Kg i.v., 5 daily injections, compared to vehicle
# Procedure: (§1) Conditioned Place Preference (CPP) and locomotor activity: Standard CPP chambers (TSE; Chesterfield, Mo.) were used to measure baseline activity and conditioning trials. Baseline activity was measured over 2 days with 4 trials per day (2 in the AM, and 2 in the PM) lasting 20 min each. […] Conditioning trials were conducted for 5 days and tested in an unbiased manner such that drug/environment pairings were counterbalanced for time of drug injection (AM or PM) and compartment (preferred or non-preferred) based on baseline activity. […] This indicates a lack of carry-over effects of drug between sessions. One day following the last conditioning trial, a 20 min test trial was conducted in the same manner as baseline trials in which rats were free to explore both compartments. Change in time spent exploring the drug-paired compartment (test-baseline) was used to indicate preference (or aversion) to the compartment. Approximately 20 min following the final session, rats were perfused and brain samples were taken for immunohistochemical analysis (below). Locomotor activity was assessed by infrared light beams located in the conditioning compartments and the start box. […] Data were recorded in meters and an assessment of locomotor sensitization was made by subtracting the first session from the final session.
# (§2) Experimenters were blinded to treatment groups.
# Male Sprague Dawley rats [3] = test: Conditioned place preference (CPP), 5-day procedure; type: in vivo, rat; details: 5 days of conditioning
# Procedure: as §1, §2
# [4] = tested on: rats trained to discriminate morphine from vehicle; test: Drug discrimination (DD), morphine-trained rats; details: for Maximum % drug-appropriate responding / response rates for food during test sessions: i.v.; for Maximum % drug-appropriate responding: male rats; for Response rate impairment %: highest dose tested (5.6 mg/Kg), percent of vehicle responding; for response rates for food during test sessions: compared to vehicle
# Procedure: Drug Discrimination (DD): Rats were food deprived to approximately 85% of the weight of free feeding cohorts to establish operant responding for 45 mg food pellets (Bioserve, Frenchtown, N.J.) in standard operant chambers (MED Associates, St. Albans, Vt.). Rats were fed 10-20 g of standard food after daily DD sessions, and ˜3× the daily amount on weekends to maintain appropriate weight. DD consisted of 3 phases (Krivsky et al., 2006). In phase 1, rats were trained to lever press for food at a fixed ratio (FR) level 1 (i.e., 1 lever press=1 food pellet) using 2 levers with stimulus lights located above each lever and a food hopper between the levers during 120 min sessions. Responding on either lever extinguished the light and delivered a food pellet. […] Once >20 pellets were earned at FR9, sessions were shortened to 20 min and response requirements were set at FR10 and the left or right lever reinforced responding on alternate days. Once >20 pellets were earned on each lever at FR10, rats started phase 2 of DD training.
# Only responses on the correct lever were reinforced and responses on the incorrect lever reset the response requirement on the correct lever. Criteria to move to phase 3 were as follows: >20 pellets per session, >90% injection appropriate lever responding, and <9 responses on the incorrect lever before the first food pellet reward.
# Two paradigms were utilized to generate substitution curves: cumulative within-session and bolus between-session injections.
# During substitution tests, both levers actively delivered food at an FR10 schedule. […] Doses were increased in ¼ log increments, with injections every 20 min followed 15 minutes later by DD sessions lasting 5 min each. […] The advantage of this procedure was that an entire dose-response was generated in one session.
# Statistics: PRISM software (GraphPad, San Diego, Calif.) was used for one-way analysis of variance (ANOVA) with Newman-Keuls post-hoc comparisons to compare CPP groups, locomotor effects, hot plate, and DD response rates. Locomotor data recorded during the conditioning sessions were analyzed by 2-way ANOVA (session x drug) and data from the first session were subtracted from the final session to assess locomotor enhancement. Experimenters were blinded to treatment groups.
# rats = details: cited from earlier work
# male and female rats = test: Naloxone-induced conditioned place aversion (CPA); type: in vivo, rat; details: i.v. morphine 5.6 mg/Kg or ZH853 4.2 mg/Kg, naloxone 1 mg/Kg s.c. 4 h later
# Procedure: Four hours later they received s.c. naloxone (1 mg/Kg) and were confined to one side of the apparatus (counterbalanced) for 20 min. The following day the animals received vehicle-then-saline rather than drug-then-naloxone. This cycle (drug+4 h+nlx+next day vehicle+saline) was repeated once, and the next day the animals had access to the entire apparatus (Post-cond).
# To assess whether ZH853 induces the negative affect typical of opioid withdrawal, the conditioned place aversion (CPA) test was conducted.
# [5] = cumulative doses producing maximum antinociceptive effects; cited from earlier work
# male rats [6] = test: Maintenance of established oxycodone self-administration (substitution); type: in vivo, rat; details: after acquisition of oxycodone SA; drug continued or substituted, i.v. infusions
# Procedure: (§3) Self-administration (SA): Self-administration tests were conducted in standard operant chambers (MED Associates, St. Albans, Vt.). Infusions were delivered through TYGON tubing threaded through metal spring leashes and attached to exterior infusion pumps. 3-hour sessions were conducted Monday-Friday during the dark cycle. At the start of each session, the house light was illuminated, and levers extended. […] For the first 5 sessions, rats were trained to lever press for oxycodone (0.1 mg/kg/infusion) on a FR1 reinforcement schedule. For the following 10 sessions, the dose of oxycodone was decreased to 0.05 mg/kg/infusion to increase lever responding.
# Maintenance of established oxycodone self-administration: Following acquisition of oxycodone self-administration, animals were split into treatment groups counterbalanced for total oxycodone intake, average number of infusions obtained in the last 3 sessions, and average number of active lever pressings over the last 3 sessions. Ten maintenance sessions were conducted in the same way as oxycodone acquisition except rats were either maintained on 0.1 mg/kg/infusion oxycodone or had drug availability substituted with equi-antinociceptive 1 mg/kg/infusion ZH853 or vehicle.
# male rats [7] = test: Forced abstinence and relapse test (oxycodone seeking); type: in vivo, rat; details: 8th day of forced abstinence; i.v. pretreatment ZH853 1.8 or 3.2 mg/kg, oxycodone 0.32 mg/kg
# Procedure: as §3
# Forced abstinence and relapse test: Following acquisition of oxycodone self-administration, rats underwent 7 days of forced abstinence from oxycodone and exposure to the testing environment in their home cages. Animals were then split into treatment groups counterbalanced for total oxycodone intake, average number of infusions obtained in the last 3 sessions, and average number of active lever pressings over the last 3 sessions. On the 8th day of forced abstinence, rats were given an intravenous injection of 1.8 mg/kg ZH853, 3.2 mg/kg ZH853, or vehicle. The relapse test began 30 minutes later.
# DBA mice = test: Hot plate antinociception test; type: in vivo, mouse; details: 40 mg/Kg, s.c.
smiles,measurement,setting,value
"CN1CC[C@]23c4c5ccc(O)c4O[C@H]2[C@@H](O)C=C[C@H]3[C@H]1C5.O=S(=O)(O)O [Morphine, Morphine sulfate, reference compound]",surface area of TH-positive somas in pVTA,[1],reduced
same,volume of TH-positive somas in pVTA,[1],reduced
same,reinstatement of morphine CPP after extinction,Male Sprague-Dawley rats,showed reinstatement of CPP
same,tail flick antinociception,male and female mice,increased the latency to tail flick
same,"locomotor sensitization (LS), day 5 minus day 1",Male Sprague Dawley rats [2],produced LS at all doses tested
same,conditioned place preference (CPP),Male Sprague Dawley rats [3]; 3.2 mg/Kg i.v.,produced conditioned place preference (CPP) effects
same,conditioned place preference (CPP),Male Sprague Dawley rats [3]; 1.8 and 5.6 mg/Kg i.v.,did not produce significant CPP
same,doses disrupting response rates during test sessions,[4]; bolus injections,≥ 3.2 mg/kg
same,Maximum % drug-appropriate responding,[4]; bolus injections made between sessions,100%
same,Response rate impairment %,"[4]; bolus injections, sulfate",77% and 77.1%
same,doses disrupting response rates during test sessions,[4]; cumulative injections,≥ 5.6 mg/kg
same,Maximum % drug-appropriate responding,[4]; cumulative injections within a single session,100%
same,Response rate impairment %,"[4]; cumulative injections, sulfate",55% and 54.5%
same,response rates for food during test sessions,[4],reduced response rates compared to vehicle
same,response rates for food during training,"[4]; training doses 3.2 mg/Kg s.c. and 1.8 mg/Kg i.v., compared to saline",modestly impaired
same,appropriate drug-lever responding,"[4]; training, after approximately 20 sessions",> 90%
same,hourly SA intake,"rats; 12-hour SA sessions, 1 mg/Kg/infusion",~3.5 mg/kg/h
same,naloxone-induced place aversion,male and female rats,produces aversive behavior
"NC(=O)[C@@H]1CCCCNC(=O)CC[C@@H](NC(=O)[C@@H](N)Cc2ccc(O)cc2)C(=O)N[C@@H](Cc2ccccc2)C(=O)N[C@@H](Cc2ccccc2)C(=O)N1 [ZH831, Tyr-c[D-Glu-Phe-Phe-Lys]-NH2]",motor impairment on the Rotarod,[5],lack of motor impairment
same,Response rate impairment %,[4]; bolus injections,21% and 21.1%
same,Response rate impairment %,[4]; cumulative injections,31% and 30.6%
same,response rates for food during test sessions,[4],not impaired
same,reinforcing effects in SA/CPP procedures,"rats; rat, in vivo",did not produce reinforcing effects in SA/CPP procedures
"NC(=O)[C@@H]1CCC(=O)NCCCC[C@@H](NC(=O)[C@@H](N)Cc2ccc(O)cc2)C(=O)N[C@@H](Cc2c[nH]c3ccccc23)C(=O)N[C@@H](Cc2ccccc2)C(=O)N1 [ZH850, Tyr-c[D-Lys-Trp-Phe-Glu]-NH2]",Response rate impairment %,[4]; bolus injections,30% and 30.4%
same,Response rate impairment %,[4]; cumulative injections,−0.3%
same,response rates for food during test sessions,[4],"impaired response rates only after bolus, but not after cumulative injections; also recorded: reduced response rates compared to vehicle"
"COc1ccc2c3c1O[C@H]1C(=O)CC[C@@]4(O)[C@@H](C2)N(C)CC[C@]314 [oxycodone, reference compound]",self-administration behavior during maintenance sessions,male rats [6],the drug-seeking behavior was maintained
same,"oxycodone-seeking (SA behavior, active lever responding) in 1-hour relapse test",male rats [7],associated with a relapse to SA behavior
"COC(=O)/C=C/C(=O)N[C@@H]1CC[C@@]2(O)[C@H]3Cc4ccc(O)c5c4[C@@]2(CCN3CC2CC2)[C@H]1O5 [βFNA, beta-funaltrexamine]",antinociceptive properties alone,DBA mice,no antinociceptive properties alone
